Holding throughout (assay): Kinase profiling
Holding throughout (type): biochemical

One assay addresses T1, IRAK4 (Homo sapiens, UniProt Q9NWZ3).
T1 construct: purchased ProQinase (Freiburg, Germany)
T1 sequence (Q9NWZ3 1-460): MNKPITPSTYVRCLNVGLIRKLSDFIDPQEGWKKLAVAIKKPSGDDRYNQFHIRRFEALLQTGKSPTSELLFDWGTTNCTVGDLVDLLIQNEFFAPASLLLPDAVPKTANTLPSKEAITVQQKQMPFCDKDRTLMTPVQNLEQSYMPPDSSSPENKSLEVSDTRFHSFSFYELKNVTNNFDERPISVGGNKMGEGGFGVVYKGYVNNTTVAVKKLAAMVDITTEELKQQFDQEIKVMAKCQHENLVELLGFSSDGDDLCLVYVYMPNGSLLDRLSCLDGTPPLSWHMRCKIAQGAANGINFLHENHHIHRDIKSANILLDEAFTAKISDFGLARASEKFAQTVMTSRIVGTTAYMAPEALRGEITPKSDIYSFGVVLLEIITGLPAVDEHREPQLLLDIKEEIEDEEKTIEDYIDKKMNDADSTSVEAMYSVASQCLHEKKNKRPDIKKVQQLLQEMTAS
On the procedure: (§1) The analysis was performed by ProQinase (Freiburg, Germany).

The target of another assay is T2, ACK1 (Homo sapiens, UniProt Q07912).
T2 construct: purchased ProQinase (Freiburg, Germany)
T2 sequence (Q07912 whole entry): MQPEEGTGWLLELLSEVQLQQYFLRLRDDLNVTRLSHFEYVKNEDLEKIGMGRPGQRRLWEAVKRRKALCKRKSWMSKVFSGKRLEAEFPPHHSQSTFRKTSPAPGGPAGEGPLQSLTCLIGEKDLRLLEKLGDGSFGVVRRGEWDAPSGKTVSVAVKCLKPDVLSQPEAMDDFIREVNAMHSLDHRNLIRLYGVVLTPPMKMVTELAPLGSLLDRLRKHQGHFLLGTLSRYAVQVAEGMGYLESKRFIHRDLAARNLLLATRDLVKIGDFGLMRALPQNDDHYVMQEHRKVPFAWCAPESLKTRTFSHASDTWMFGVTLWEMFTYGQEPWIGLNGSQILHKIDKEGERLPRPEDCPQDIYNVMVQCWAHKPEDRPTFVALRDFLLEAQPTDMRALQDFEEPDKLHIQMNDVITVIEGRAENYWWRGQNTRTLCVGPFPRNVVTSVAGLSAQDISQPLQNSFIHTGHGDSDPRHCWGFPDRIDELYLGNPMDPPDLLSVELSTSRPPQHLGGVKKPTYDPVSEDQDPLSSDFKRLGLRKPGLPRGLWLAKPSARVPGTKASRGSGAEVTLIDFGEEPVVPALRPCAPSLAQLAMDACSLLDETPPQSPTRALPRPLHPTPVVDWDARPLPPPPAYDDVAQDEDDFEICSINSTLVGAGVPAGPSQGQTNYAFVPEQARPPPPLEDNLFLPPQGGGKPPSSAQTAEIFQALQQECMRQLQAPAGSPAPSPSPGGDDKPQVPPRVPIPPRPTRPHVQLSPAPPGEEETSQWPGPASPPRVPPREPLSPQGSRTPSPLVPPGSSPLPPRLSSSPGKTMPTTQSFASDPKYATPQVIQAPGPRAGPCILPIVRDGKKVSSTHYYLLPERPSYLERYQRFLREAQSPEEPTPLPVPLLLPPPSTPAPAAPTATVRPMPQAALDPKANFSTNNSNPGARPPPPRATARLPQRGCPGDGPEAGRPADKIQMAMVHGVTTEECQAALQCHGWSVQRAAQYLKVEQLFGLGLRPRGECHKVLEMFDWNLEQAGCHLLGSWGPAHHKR
Here is the method:
as §1

In the next assay the target is T3, STK17A (Homo sapiens, UniProt Q9UEE5).
T3 construct: purchased ProQinase (Freiburg, Germany)
T3 sequence (Q9UEE5 1-414): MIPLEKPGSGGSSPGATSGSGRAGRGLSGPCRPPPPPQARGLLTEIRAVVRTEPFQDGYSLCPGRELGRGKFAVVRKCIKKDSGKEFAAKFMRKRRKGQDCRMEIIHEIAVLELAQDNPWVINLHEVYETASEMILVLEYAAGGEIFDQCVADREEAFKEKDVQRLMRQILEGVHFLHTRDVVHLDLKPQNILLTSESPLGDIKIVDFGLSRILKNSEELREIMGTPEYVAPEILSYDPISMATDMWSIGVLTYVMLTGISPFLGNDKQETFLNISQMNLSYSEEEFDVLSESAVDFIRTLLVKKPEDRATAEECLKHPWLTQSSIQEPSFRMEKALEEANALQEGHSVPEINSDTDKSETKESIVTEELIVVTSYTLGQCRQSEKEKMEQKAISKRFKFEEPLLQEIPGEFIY
Here is the method:
as §1

The target in a further assay is T4, MUSK (Homo sapiens, UniProt O15146).
T4 construct: purchased ProQinase (Freiburg, Germany)
T4 sequence (O15146 24-869): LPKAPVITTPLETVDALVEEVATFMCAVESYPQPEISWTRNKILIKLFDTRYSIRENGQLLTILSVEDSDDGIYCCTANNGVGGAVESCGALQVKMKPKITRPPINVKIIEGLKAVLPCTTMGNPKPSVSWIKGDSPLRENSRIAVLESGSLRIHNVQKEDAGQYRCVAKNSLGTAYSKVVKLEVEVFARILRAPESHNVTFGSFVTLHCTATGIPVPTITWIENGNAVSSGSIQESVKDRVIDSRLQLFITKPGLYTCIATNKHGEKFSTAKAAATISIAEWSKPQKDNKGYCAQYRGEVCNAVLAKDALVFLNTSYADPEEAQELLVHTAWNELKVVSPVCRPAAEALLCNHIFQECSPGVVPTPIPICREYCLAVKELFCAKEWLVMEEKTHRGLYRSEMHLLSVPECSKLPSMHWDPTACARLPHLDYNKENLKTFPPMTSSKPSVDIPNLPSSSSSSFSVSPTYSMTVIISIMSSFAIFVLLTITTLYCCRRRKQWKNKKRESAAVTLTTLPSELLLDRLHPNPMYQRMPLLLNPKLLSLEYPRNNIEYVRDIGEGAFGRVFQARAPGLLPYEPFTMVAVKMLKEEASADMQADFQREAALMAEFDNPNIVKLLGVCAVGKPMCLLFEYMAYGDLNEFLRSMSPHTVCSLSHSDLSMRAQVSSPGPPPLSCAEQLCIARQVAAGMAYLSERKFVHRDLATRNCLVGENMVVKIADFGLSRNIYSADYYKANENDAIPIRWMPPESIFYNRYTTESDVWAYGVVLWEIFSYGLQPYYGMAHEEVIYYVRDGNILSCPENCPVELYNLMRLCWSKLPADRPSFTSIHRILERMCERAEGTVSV
Here is the method:
as §1

The target in the next assay is T5, SNARK (Homo sapiens, UniProt Q9H093).
T5 construct: purchased ProQinase (Freiburg, Germany)
T5 sequence (Q9H093 1-628): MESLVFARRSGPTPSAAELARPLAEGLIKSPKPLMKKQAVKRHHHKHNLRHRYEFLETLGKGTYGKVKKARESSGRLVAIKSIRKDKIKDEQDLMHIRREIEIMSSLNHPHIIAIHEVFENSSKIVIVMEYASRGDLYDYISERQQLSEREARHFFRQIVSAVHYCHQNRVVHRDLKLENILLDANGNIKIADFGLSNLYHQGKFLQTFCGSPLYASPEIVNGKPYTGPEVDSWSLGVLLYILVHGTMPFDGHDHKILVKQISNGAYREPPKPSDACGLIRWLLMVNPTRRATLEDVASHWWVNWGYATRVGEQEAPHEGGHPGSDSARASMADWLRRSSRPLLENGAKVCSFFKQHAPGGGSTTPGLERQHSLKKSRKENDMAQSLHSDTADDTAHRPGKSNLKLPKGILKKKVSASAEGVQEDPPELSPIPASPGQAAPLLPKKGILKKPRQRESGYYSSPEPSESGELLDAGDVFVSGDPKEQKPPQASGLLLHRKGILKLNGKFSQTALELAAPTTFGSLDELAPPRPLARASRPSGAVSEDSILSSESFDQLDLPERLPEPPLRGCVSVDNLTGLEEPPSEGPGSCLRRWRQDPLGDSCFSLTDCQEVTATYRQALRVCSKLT
On the procedure: as §1

For the next assay, the target named is T6, MEK2 (Homo sapiens, UniProt P36507).
T6 construct: purchased ProQinase (Freiburg, Germany)
T6 sequence (P36507 whole entry): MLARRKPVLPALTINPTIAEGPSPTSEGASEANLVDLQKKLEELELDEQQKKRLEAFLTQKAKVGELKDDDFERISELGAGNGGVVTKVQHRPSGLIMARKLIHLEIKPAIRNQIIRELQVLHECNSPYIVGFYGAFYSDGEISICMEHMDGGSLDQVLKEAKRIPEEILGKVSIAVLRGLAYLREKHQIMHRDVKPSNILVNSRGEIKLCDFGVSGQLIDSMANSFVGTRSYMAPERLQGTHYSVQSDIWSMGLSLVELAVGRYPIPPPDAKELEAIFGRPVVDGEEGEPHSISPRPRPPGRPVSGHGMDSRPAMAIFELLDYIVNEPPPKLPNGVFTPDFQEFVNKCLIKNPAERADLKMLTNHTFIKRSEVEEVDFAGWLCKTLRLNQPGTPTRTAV
Here is the method: as §1

Another assay deals with T7, DNAPK (Homo sapiens, UniProt P78527).
T7 construct: purchased ProQinase (Freiburg, Germany)
On the procedure:
as §1

The target in a further assay is T8, CDK17/p35NCK (Homo sapiens, UniProt Q00537).
T8 construct: purchased ProQinase (Freiburg, Germany)
T8 sequence (Q00537 whole entry): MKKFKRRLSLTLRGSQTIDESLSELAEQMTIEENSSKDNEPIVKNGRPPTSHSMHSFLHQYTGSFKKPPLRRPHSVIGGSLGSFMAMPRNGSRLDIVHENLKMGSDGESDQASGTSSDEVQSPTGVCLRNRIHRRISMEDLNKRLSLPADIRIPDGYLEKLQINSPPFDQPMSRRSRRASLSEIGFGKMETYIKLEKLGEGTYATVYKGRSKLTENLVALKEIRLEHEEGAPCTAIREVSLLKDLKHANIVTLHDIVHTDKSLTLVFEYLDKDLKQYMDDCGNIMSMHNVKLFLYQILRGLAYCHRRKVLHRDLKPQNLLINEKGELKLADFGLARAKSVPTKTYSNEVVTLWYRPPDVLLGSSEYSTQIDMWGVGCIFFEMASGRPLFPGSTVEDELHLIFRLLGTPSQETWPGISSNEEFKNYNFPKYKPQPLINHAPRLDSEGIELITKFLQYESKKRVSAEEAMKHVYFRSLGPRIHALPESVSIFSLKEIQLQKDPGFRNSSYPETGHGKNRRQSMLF
T8 sequence (Q15078 whole entry partner): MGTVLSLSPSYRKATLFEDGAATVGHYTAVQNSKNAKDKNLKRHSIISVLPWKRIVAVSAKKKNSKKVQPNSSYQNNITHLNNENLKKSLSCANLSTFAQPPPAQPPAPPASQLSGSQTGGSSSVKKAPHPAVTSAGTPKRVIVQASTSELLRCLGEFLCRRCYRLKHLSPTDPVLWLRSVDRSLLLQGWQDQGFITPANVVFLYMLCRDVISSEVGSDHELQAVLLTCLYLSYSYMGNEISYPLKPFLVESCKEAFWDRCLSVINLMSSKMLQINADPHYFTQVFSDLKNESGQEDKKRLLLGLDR
On the procedure:
as §1

For another assay, the target named is T9, CDC42BPB (Homo sapiens, UniProt Q9Y5S2).
T9 construct: purchased ProQinase (Freiburg, Germany)
T9 sequence (Q9Y5S2 whole entry): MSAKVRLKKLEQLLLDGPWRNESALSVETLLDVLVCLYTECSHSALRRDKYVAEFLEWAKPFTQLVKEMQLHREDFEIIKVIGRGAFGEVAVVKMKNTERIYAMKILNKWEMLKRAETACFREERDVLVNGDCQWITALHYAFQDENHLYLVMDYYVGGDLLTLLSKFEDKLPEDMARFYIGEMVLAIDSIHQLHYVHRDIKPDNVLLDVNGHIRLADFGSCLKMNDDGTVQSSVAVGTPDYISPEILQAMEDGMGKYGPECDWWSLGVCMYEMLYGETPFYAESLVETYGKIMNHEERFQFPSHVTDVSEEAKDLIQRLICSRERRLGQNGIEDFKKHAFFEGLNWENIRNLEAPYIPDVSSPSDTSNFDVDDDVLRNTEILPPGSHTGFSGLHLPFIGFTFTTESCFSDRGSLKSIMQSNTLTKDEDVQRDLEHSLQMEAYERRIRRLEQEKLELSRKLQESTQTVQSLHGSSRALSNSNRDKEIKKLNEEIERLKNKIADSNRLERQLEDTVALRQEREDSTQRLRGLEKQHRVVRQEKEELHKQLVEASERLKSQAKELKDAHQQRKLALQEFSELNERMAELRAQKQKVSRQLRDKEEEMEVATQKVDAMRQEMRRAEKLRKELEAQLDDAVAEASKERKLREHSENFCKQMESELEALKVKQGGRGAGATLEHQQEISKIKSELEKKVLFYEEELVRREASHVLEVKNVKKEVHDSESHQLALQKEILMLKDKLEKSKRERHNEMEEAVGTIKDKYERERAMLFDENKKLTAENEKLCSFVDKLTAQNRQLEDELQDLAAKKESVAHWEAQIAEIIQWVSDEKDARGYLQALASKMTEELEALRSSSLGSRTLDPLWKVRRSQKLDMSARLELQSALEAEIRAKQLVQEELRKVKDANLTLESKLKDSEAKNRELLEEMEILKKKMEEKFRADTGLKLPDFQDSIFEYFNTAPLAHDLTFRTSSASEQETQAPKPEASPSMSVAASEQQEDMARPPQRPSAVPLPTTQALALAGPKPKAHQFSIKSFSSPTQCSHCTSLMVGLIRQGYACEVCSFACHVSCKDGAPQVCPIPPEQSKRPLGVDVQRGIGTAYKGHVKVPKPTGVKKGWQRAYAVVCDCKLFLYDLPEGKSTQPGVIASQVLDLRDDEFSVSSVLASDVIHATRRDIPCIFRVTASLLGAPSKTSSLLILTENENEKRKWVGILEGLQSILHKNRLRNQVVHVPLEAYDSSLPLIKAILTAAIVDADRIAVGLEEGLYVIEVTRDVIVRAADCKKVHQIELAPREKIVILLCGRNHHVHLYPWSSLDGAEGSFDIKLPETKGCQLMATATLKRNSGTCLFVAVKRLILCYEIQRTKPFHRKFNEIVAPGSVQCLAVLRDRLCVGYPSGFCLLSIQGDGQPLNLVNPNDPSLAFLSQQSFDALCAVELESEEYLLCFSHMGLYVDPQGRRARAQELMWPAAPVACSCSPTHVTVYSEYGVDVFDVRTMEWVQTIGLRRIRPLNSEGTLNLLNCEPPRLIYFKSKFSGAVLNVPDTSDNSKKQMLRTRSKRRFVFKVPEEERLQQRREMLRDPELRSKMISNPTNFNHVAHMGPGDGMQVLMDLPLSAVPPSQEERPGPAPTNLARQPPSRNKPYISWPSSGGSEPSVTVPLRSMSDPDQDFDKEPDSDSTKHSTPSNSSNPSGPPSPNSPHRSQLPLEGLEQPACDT
On the procedure:
as §1

On to `O=C(Cc1ccccc1)Nc1ccc(F)c(Nc2ccc3c(c2)CCCCC3=O)c1` [Compound 100], for which the Residual activity is reported as 100 % of control on IRAK4 (1.0E-05 M); 97 % of control at IRAK4 (1.0E-06 M); 92 % of control on ACK1 (1.0E-05 M); 112 % of control on ACK1 (1.0E-06 M); 76 % of control at STK17A (1.0E-05 M); 111 % of control at STK17A (1.0E-06 M). In addition, the Residual activity at MUSK (1.0E-05 M) is 93 % of control; at MUSK (1.0E-06 M), 98 % of control; at SNARK (1.0E-05 M), 92 % of control; at SNARK (1.0E-06 M), 107 % of control; on MEK2 (1.0E-05 M), 88 % of control; at MEK2 (1.0E-06 M) it was 102 % of control. In addition, the Residual activity on DNAPK (1.0E-05 M) was 97 % of control; on DNAPK (1.0E-06 M) it was 95 % of control; on CDK17/p35NCK (1.0E-05 M) it was 84 % of control; on CDK17/p35NCK (1.0E-06 M), 102 % of control; at CDC42BPB (1.0E-05 M), 107 % of control; at CDC42BPB (1.0E-06 M) it was 112 % of control.

`O=C(Nc1ccc(F)c(Nc2ccc3c(c2)CCCCC3=O)c1)c1cccc(F)c1` [Compound 109]: the Residual activity is given as 93 % of control on IRAK4 (1.0E-05 M); 92 % of control at IRAK4 (1.0E-06 M); 89 % of control at ACK1 (1.0E-05 M); 96 % of control at ACK1 (1.0E-06 M); 88 % of control at STK17A (1.0E-05 M); 105 % of control at STK17A (1.0E-06 M). Further, the Residual activity is on record as 83 % of control at MUSK (1.0E-05 M); 97 % of control at MUSK (1.0E-06 M); 98 % of control at SNARK (1.0E-05 M); 105 % of control at SNARK (1.0E-06 M); 89 % of control at MEK2 (1.0E-05 M); 100 % of control on MEK2 (1.0E-06 M). The Residual activity is 106 % of control on DNAPK (1.0E-05 M); 96 % of control at DNAPK (1.0E-06 M); 92 % of control at CDK17/p35NCK (1.0E-05 M); 109 % of control at CDK17/p35NCK (1.0E-06 M); 110 % of control at CDC42BPB (1.0E-05 M); 106 % of control at CDC42BPB (1.0E-06 M).

For the origin of these results see PMC9030254, “Target Hopping from Protein Kinases to PXR: Identification of Small-Molecule Protein Kinase Inhibitors as Selective Modulators of Pregnane X Receptor from TüKIC Library” (Cells, 2022).
